The values below come from publication PMC10447463, “Data-mining unveils structure–property–activity correlation of viral infectivity enhancing self-assembling peptides” (Nature Communications, 2023).

Where two headings read alike, the source gives them in different places.

Data set [1] relates to TZM-bl cells. In kind it is cell-based. To be noted: CellTiter-Glo, mean of n = 3 replicates; for viability 0.26 µM: peptide 0.26 µM; for viability 1.3 µM: peptide 1.3 µM; for viability 6.5 µM: peptide 6.5 µM. Put shortly:
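Viability of TZM-bl cells (10,000 seeded) after 3 days with serially diluted peptides, measured by CellTiter-Glo luminescence. Values normalized to 100% metabolic activity; triplicates.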
(In general: ATP-based viability assays read luminescence as a measure of living cells.)

A short description of data set [2]: β-sheet content by ATR-FT-IR. It counts as physicochemical. Put shortly: (§1)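 Fluorescence at 470 nm (365 nm excitation) was read 20 min after adding fluorescamine to DMSO-dissolved filtrate and unfiltered PNF, then CR computed as 100 − 100 × filtrate/original. Secondary structure came from ATR FT-IR spectra of lyophilized PNF powder.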
The nature of data set [3]: Conversion rate (CR) assay with fluorescamine. In kind it is physicochemical. The gist of the method: as §1
Data set [4] can be described thus: Turbidity, derived count rate of scattered light. In kind it is physicochemical. The following applies: log10 of derived count rate of scattered light, Figure 7B.
The conditions of data set [5]: previously reported peptides only; ref sieste 2021 or Schilling2019; cited from earlier work. An excerpt:
Supplement 41467_2023_40663_MOESM7_ESM.zip/FigS17.csv, table | column: Conversion Rate / % ( from sieste 2021 or Schilling2019)

As to CKIKIQIII [AR0 / F19], in data set [1], the “viability 0.26 µM” value amounted to 109.6, the “viability 1.3 µM” value is 100.4 and the “viability 6.5 µM” value worked out at 87.63.
With CKIKIQIRGD [psis21], in data set [1], the “viability 0.26 µM” value amounted to 104.5, the “viability 1.3 µM” value was 107.1 and the “viability 6.5 µM” value is reported as 97.19.
Take EIEIQINM [TM95 / (TM75)]: in data set [2], the “FTIR ß-sheet content/ %” value is given as 53.87%. The “Conversion Rate / %” value in data set [3] is reported as 79.85%.
For EIEIQINMWQ [VH8] the same measures were 53.91% and 89.92%.
Turning to GYVIIK [reference compound], the “Log10 Count Rate” value in data set [4] came to 1.476.
In the case of HHHHKAKAKAKAYYYY [TM10], in data set [1], the “viability 0.26 µM” value is given as 107.4, the “viability 1.3 µM” value came to 112.1 and the “viability 6.5 µM” value stood at 104.4.
In the case of HHHHKIKIQINMYYYY [TM16], in data set [2] (ATR-FT-IR), the “FTIR ß-sheet content/ %” value stood at 46.73%. For the same substance, in data set [1], the “viability 0.26 µM” value is 118.7, the “viability 1.3 µM” value is 114.9 and the “viability 6.5 µM” value amounted to 85.37. The “Conversion Rate / %” value in data set [3] (fluorescamine assay) turned out to be 98.42%.
Turning to HIHIQIC [CN12], in data set [2] (ATR-FT-IR), the “FTIR ß-sheet content/ %” value came to 48.25%. Moreover, in data set [1], the “viability 0.26 µM” value turned out to be 99.21, the “viability 1.3 µM” value was 105 and the “viability 6.5 µM” value amounted to 101.2. In data set [3] (fluorescamine assay), the “Conversion Rate / %” value is given as 82.72%.
Consider HLHLPLL [CN14], for which the “FTIR ß-sheet content/ %” value in data set [2] (ATR-FT-IR) was determined as 49.19%. For the same substance, the “Conversion Rate / %” value in data set [3] (fluorescamine assay) is 37.51%.
Regarding IFQINS [reference compound], the “Log10 Count Rate” value in data set [4] was 1.56.
On the same count and under the same terms, then IIIK [reference compound], with 1.413; and IIIQGK [reference compound], with 0.9808.
Still for that read-out and setting: then IKFLSVN [reference compound], with 2.136.
For KFKFQFFF [TG12], the “Conversion Rate / % ( from sieste 2021 or Schilling2019)” value in data set [5] is on record as 99%. Also, the “FTIR ß-sheet content/ %” value in data set [2] and in data set [2] (ATR-FT-IR) was 49.11% throughout. For the same substance, the “viability 0.26 µM” value in data set [1] is 108.2. For the same substance, the “viability 1.3 µM” value in data set [1] was 109.4. The “viability 6.5 µM” value in data set [1] came to 97. The “Conversion Rate / %” value in data set [3] and in data set [3] (fluorescamine assay) was 97.92% in each case.
Consider KIKIKIKIWW [TM21], for which, in data set [1], the “viability 0.26 µM” value worked out at 95.22, the “viability 1.3 µM” value was 94.23 and the “viability 6.5 µM” value was found to be 80.72.
For KIKIKIKIWWWW [TM12] the same measures were 125.9, 106.4 and 86.48.
For KIKIQIII [TG7], the “Conversion Rate / % ( from sieste 2021 or Schilling2019)” value in data set [5] was 87%.
KLVFFAK [reference compound]: the “Log10 Count Rate” value in data set [4] stood at 1.159.
With KYFIL [reference compound], in data set [4], the “Log10 Count Rate” value is reported as 4.277.
Still for that read-out and setting: then LASLIYR [reference compound], with 2.0205.
Still for that read-out and setting: then MKVIFLKDVKG [reference compound], with 2.137; and NKGAII [reference compound], with 1.831; and RATVYV [reference compound], with 1.621.
RGDKIKIQINM [MG8a / CN17]: the “Conversion Rate / % ( from sieste 2021 or Schilling2019)” value in data set [5] is 48%. Besides, the “FTIR ß-sheet content/ %” value in data set [2] stood at 45.52%. The “FTIR ß-sheet content/ %” value in data set [2] (ATR-FT-IR) is reported as 45.52%. Also, in data set [1], the “viability 0.26 µM” value amounted to 107.7, the “viability 1.3 µM” value is on record as 105.2 and the “viability 6.5 µM” value is 86.63. Also, in data set [3], the “Conversion Rate / %” value is 73.83%. Also, the “Conversion Rate / %” value in data set [3] (fluorescamine assay) came out at 73.83%.
In the case of RGDKIKIQINMC [psis29], in data set [1], the “viability 0.26 µM” value was found to be 103.4, the “viability 1.3 µM” value was 101.5 and the “viability 6.5 µM” value worked out at 82.89.
For RGDKIKIQINMWQ [MG9a] the same measures were 104.4, 105.9 and 88.59.
For RGDSGGGGGGKIKIQIC [TM114 / RC17], in that order: 105.8, 97.96 and 78.89.
As to RGECKFKFQF [CN16], the “FTIR ß-sheet content/ %” value in data set [2] (ATR-FT-IR) worked out at 46.18%. Further, in data set [1], the “viability 0.26 µM” value turned out to be 105.4, the “viability 1.3 µM” value is on record as 106.3 and the “viability 6.5 µM” value was determined as 102.8. Besides, in data set [3] (fluorescamine assay), the “Conversion Rate / %” value amounted to 98.71%.
For RGEKIKIQINM [CN18], in that order: 43.05%, 93.96, 87.66, 79.74 and 80.28%.
For RLRLTLC [CN13] the same measures were 20.69%, 120.7, 120.4, 108.4 and 87.44%.
For RQGNINIVA [reference compound], the “Log10 Count Rate” value in data set [4] is 1.551.
Still for that read-out and setting: then VHDCVNITIK [reference compound], with 4.098.
